Where no end group is shown, it is not given here.

Assay [1] relates to Escherichia coli (NBRC14237). Type of assay: cell-based. The settings on record: for Antimicrobial activity against Escherichia coli (in words): segments with Na^4vSS less than − 30, Supplementary Fig. S1; for MIC, E. coli (NBRC 14237): NBRC14237. As to the method: (§1) Antimicrobial activities of the peptides were measured as described previously. Synthetic peptides were added to the microbial suspension in the individual wells of a microplate at final concentrations of 3.125, 6.25, 12.5, and 25 μM. The relative activities (RA) were calculated by the equation RA = ((APC − ANC) − ASA)/(APC − ANC), where APC, ANC, and ASA represent the absorbance of positive control, negative control, and samples, respectively. The bacteria and yeast strains used were Escherichia coli (NBRC14237), Staphylococcus aureus (NBRC12732), Pseudomonas aeruginosa (NBRC12582), and Saccharomyces cerevisiae (NBRC10217), which were purchased from Biological Resource Center, National Institute of Technology and Evaluation (NBRC, Tokyo, Japan). The interaction between Ciona LCAMPs and membrane interface was predicted using AmphipaSeek server (https://npsa-pbil.ibcp.fr/cgi-bin/npsa_automat.pl?page=/NPSA/npsa_amphipaseek.html)[28].

For assay [2] the following is noted: cited from earlier work. As to the method: We examined the effects of five novel Ciona LCAMPs in the presence of NaCl on antimicrobial activity against E. coli. Reflective of the habitat of C. intestinalis, salt resistance was found in all peptides at the concentration of 12.5 μM (Fig. 2).
Assay [3] relates to Saccharomyces cerevisiae (NBRC10217). In kind it is cell-based. The protocol:
as §1

Assay [4] deals with Pseudomonas aeruginosa (NBRC12582). Type of assay: cell-based. As to the method: as §1
Assay [5] concerns Staphylococcus aureus (NBRC12732). Type of assay: cell-based. As to the method:
as §1

For a further assay, the system named is bacteria. The settings on record: in vitro development-resistance studies; cited from earlier work. The text has this: Antimicrobial peptides are crucial and widespread effector molecules of the innate immune system and are a part of the first line of host defense against invading pathogens[1],[2]. To date, thousands of antimicrobial peptides have been identified from bacteria to mammals and have been classified into several groups on basis of the structure and sequence features[3]–[5]. Of these, linear cationic α-helical antimicrobial peptides (LCAMPs), the genes of which encode short amphipathic peptides without cysteine residues, are the most abundant and widespread in organisms. LCAMPs are known for their ...

Take “AERLMRKAAKDHWSNKMAKDVIWWEQ [KH.S930.2, cationic amphipathic α-helical segment with Na4vSS less than − 30, synthetic peptide]”: the “Antimicrobial activity against Escherichia coli (in words)” value (from here on “Antimicrobial activity … (in words)”) in assay [1] is on record as “no or weak antimicrobial activities”.
As to “ALRSAVRTVARVGRAVLPHVAI [Ci-PAP-A, known salt-resistant LCAMP from C. intestinalis hemocyte EST database]”, the “NaCl concentration in the presence of which antimicrobial activity is exhibited” value in assay [2] is reported as 100 mM.
For the substance “FGRRRRVPGRRRRWWNERAMNEI [KH.S1007.2, cationic amphipathic α-helical segment with Na4vSS less than − 30, synthetic peptide]”, the “Antimicrobial activity … (in words)” value in assay [1] is “no or weak antimicrobial activities”.
Regarding “FRRRRRRRRHWHHHHHYHYHHHRRRRRRRRRW [KH.L63.9, cationic amphipathic α-helical segment with Na4vSS less than − 30, synthetic peptide]”, the “Antimicrobial activity … (in words)” value in assay [1] was “no or weak antimicrobial activities”.
KGGKFLNFLKKAAKVGAKVGMAALG [KH.S908.1]: the “MIC, S. cerevisiae (NBRC 10217)” value in assay [3] was determined as 6.25 µM. Also, the “MIC, E. coli (NBRC 14237)” value in assay [1] was below 3.125 µM. In addition, the “MIC, P. aeruginosa (NBRC 12582)” value in assay [4] is 6.25 µM. In addition, the “MIC, S. aureus (NBRC 12732)” value in assay [5] is below 3.125 µM.
Regarding “KLKTWPKNYWRKVWSKKNWRKFVKKFKHW [KH.S921.1]”, the “MIC, E. coli (NBRC 14237)” value in assay [1] was below 3.125 µM. Further, in assay [4], the “MIC, P. aeruginosa (NBRC 12582)” value was below 3.125 µM. For the same substance, the “MIC, S. aureus (NBRC 12732)” value in assay [5] was below 3.125 µM.
For the substance “RRRRRIAARIGSGVAQTGGELI [KH.C1.365, cationic amphipathic α-helical segment with Na4vSS less than − 30, synthetic peptide]”, the “Antimicrobial activity … (in words)” value in assay [1] is listed as “no or weak antimicrobial activities”.
Regarding SRRRFDFSRRRIYVARRRSLAFAHRRR [KH.C7.94], in assay [3], the “MIC, S. cerevisiae (NBRC 10217)” value came to 6.25 µM. Further, the “MIC, E. coli (NBRC 14237)” value in assay [1] was 6.25 µM. The “MIC, S. aureus (NBRC 12732)” value in assay [5] stood at 6.25 µM.
For the substance TINKKFRWHGKRKWWLRFVKQ [KH.S1531.4], the “MIC, S. cerevisiae (NBRC 10217)” value in assay [3] is 6.25 µM. Also, the “MIC, E. coli (NBRC 14237)” value in assay [1] was below 3.125 µM. Also, the “MIC, S. aureus (NBRC 12732)” value in assay [5] was below 3.125 µM.
Turning to “WRSLGRTLLRLSHALKPLARRSGW [Ci-MAM-A, known salt-resistant LCAMP from C. intestinalis hemocyte EST database]”, the “NaCl concentration in the presence of which antimicrobial activity is exhibited” value in assay [2] is reported as 450 mM.
With WWLSRRRSSLFYWR [KH.C1.640], the “MIC, S. cerevisiae (NBRC 10217)” value in assay [3] amounted to 12.5 µM. In addition, the “MIC, E. coli (NBRC 14237)” value in assay [1] is below 3.125 µM. Moreover, the “MIC, S. aureus (NBRC 12732)” value in assay [5] was below 3.125 µM.
Take pexiganan: the “Potential for induction of bacterial resistance” value in the assay with bacteria is given as “low potential for induction of bacterial resistance”.

These data come from PMC7387483, “In silico identification and functional validation of linear cationic α-helical antimicrobial peptides in the ascidian Ciona intestinalis” (Scientific Reports, 2020).
